From US20240208984A1, “BIVALENT LIGANDS TO UNDERSTAND DIMERIZATION OF THE MU OPIOID RECEPTOR AND THE CHEMOKINE RECEPTOR CCR5 IN NEUROLOGICAL DISORDERS” (priority 2021, published 2024)
pKi: −log10 of the molar value.

Columns and labels:
mouse MOR = mouse MOR (Mus musculus (Mouse), UniProt P42866); experiment: In vitro MOR radioligand binding assay; conditions: [3H]naloxone radioligand; mMOR-CHO; mean ± SEM; read-out: MOR Radioligand Binding Affinity Ki
Experimental: In vitro MOR radioligand binding studies. All bivalent ligands were first tested for their binding affinity to the MOR. The competitive radioligand binding assay was conducted using monoclonal mouse MOR expressed in CHO cell lines (mMOR-CHO).
In vitro MOR radioligand binding assay The competition binding assay was conducted using monoclonal mouse MOR expressed in Chinese hamster ovary (CHO) cell lines. In this assay, 30 μg of membrane protein was incubated with the radioligand [^3H] naloxone in the presence of different concentrations of tested compounds in TME buffer (50 mM Tris, 3 mM MgCl2, and 0.2 mM EGTA, pH 7.4) for 1.5 h at 30° C. The bound radioligand was separated by filtration using a Brandel harvester. […] The IC50 values were determined and converted to Ki values using the Cheng-Prusoff equation: Ki=IC50/[1+([L*]/KD)], where [L*] is the concentration of the radioligand and KD is the KD of the radioligand was determined.73

[1] = tested on: HIV-1BaL Env-pseudotyped Luc-expressing virus; experiment: HIV-1-Luc infection assay in PBMCs; format: cell-based; conditions: non-stimulated PBMCs; 1000 nM
Source text: Peripheral blood mononuclear cells (PBMCs) include large numbers of CCR5-expressing leukocytes and are susceptible to infection by R5-tropic HIV-1 strains.
Isolated human PBMCs were obtained commercially from the New York Blood Bank and exempt from Human Subjects criteria (NIH Exemption 4: website located at nih.gov/sites/default/files/exemption_infographic_v7_508c-3-21-19.pdf). The adult PBMCs are publicly available and no information or identifiers are provided so subjects cannot be identified. […] After 3 days in culture, supernatants were harvested, floating cells removed by centrifugation, HIV-1 p24 Ag measured by commercial ELISA (Zeptometrix), and viral aliquots stored at −80° C. […]
PBMCs were isolated from buffy coats of healthy blood donors by centrifugation in Ficoll gradient (MP Biomedicals). Viable cells, determined by Trypan blue exclusion, were stimulated, or not, for 2 days with 5 μg/mL PHA (Sigma). […]
After 2 days of infection, 100 μL of 2× Luciferase Substrate containing lysing buffer (BRIGHT-GLO™ Luciferase Assay System, Promega) were added per well, plate was agitated for 2 mins (700 rpm) and Luminescence was evaluated using a PHERASTAR® FS plate reader (BMG Labtech).

mouse MOR, sequence (P42866 whole entry, looked up): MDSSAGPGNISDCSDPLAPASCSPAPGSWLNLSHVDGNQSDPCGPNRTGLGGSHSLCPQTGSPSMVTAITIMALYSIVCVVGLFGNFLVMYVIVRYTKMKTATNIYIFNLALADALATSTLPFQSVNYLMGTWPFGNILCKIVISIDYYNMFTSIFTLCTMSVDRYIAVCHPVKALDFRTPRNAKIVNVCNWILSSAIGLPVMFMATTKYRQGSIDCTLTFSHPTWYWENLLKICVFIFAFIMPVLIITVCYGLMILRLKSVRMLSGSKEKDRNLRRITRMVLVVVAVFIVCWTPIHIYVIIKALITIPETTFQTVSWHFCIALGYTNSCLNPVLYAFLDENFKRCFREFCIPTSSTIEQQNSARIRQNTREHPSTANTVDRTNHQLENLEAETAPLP

SMILES: CC(C)c1nnc(CCNC(=O)COCC(=O)NCCCCCCCNC(=O)COCC(=O)NC2CC[C@@]3(O)[C@H]4Cc5ccc(O)c6c5[C@@]3(CCN4CC3CC3)[C@H]2O6)n1C1CC2CCC(C1)N2CC[C@H](NC(=O)C1CCC(F)(F)CC1)c1ccccc1 (some centres unmarked) [VZMC013]
- pKi (mouse MOR): 8.22
- Inhibition of HIV-1-Luc infectivity [1]: nearly complete blockade
